Laboratory results taken from US20090298843A1, “TREATMENT OF HEMATOLOGICAL MALIGNANCIES WITH FTS AND A BCR-ABL TYROSINE KINASE INHIBITOR” (RAMOT AT TEL AVIV UNIVERSITY LTD., priority 2006, published 2009).

What was measured:
[1] = test system: seven leukemia cell lines (CEM, HSB-2, 697, Raji, U-937, HL-60, K562); assay: Cell growth inhibition assay, FTS alone, summary over the seven cell lines; type: cell-based, Human
Excerpt: (§1) The following cell lines were examined, representing Acute Myeloid Leukemia (AML), Acute Lymphoblastic Leukemia (ALL), and Chronic Myeloid Leukemia (CML): 1. CEM (Human T-cell leukemia, ALL) 2. HSB-2 (Human T-cell leukemia, ALL) carrying the t(1; 7) (p34; q34) involving the lck and tcrb genes and a submicroscopic del(1)(p32) leading to the Sil-Scl fusion gene 3. 697 (Human T-cell leukemia, ALL) 4. Raji (Human Burkitt's lymphoma) with overexpression and mutation in the c-Myc gene 5. U-937 (Human histiocytic lymphoma, AML) 6. HL-60 (AML) 7. K562 (Himan, CML) with a b3-a2 fusion gene to create the Bcr-Abl chimeric oncoprotein.
(§2) Cells were grown at 37° C. in RPMI containing 5% FCS, 100 μg/mL streptomycin, and 100 units/mL penicillin and maintained in a humidified atmosphere of 95% air/5% CO2. […] Each experiment tin quadruplicate) was performed at least two times.

[2] = Phase-I open-label study of FTS in human patients with advanced hematologic malignancies; type: in vivo; conditions: for ANC, baseline level / HGB, baseline level / PLT, baseline level: before treatment
Procedure: One human patient with advanced myelodysplastic syndrome (MDS) refractory to chemotherapy was treated with FTS, at a dose of 200 b.i.d. (400 mg daily), administered on days 1 to 21 of a 28 day cycle. […] The results are graphically depicted in FIG. 7 and in Table 3 (below). Five human patients with advanced myelodysplastic syndrome (MDS), acute myelogenous leukemia (AML), or chronic myelogenous leukemia (CML) refractory to chemotherapy were treated with FTS at doses of 200 to 600 mg b.i.d. (400 to 1200 mg daily) administered on days 1 to 21 of a 28 day cycle. […]

K562 cells (Human, CML) [3] = assay: FACS analysis of propidium iodide stained cells (cell cycle distribution, sub-G1); type: cell-based; conditions: for cells in sub-G1: 48 h
Procedure: Third, a FACS analysis was performed. Cells were plated at a density of 50,000 cells per ml in 10 cm plates for fluorescence-activated cell-sorting (FACS) analysis of propidium iodide stained cells. […] Forty-eight hours (48 h) later, propidium iodide mixed with 1% Triton X-100 was added to the cells, and the cell cycle distribution of the cells was assessed using a FACS machine.
[Gambacorti-Passerini, C., le Coutre, P., Mologni, L., Fanelli, M., Bertazzoli, C., Marchesi, E., Di Nicola, M., Biondi, A., Corneo, G. M., Belotti, D., Pogliani, E., Lydon, N. B., Blood Cells Mol Dis. 23(3):380-94 (1997)].

HL-60 cells (AML) = assay: Cell growth inhibition assay, FTS alone (direct cell count); type: cell-based, Human; conditions: for cell number in FTS-treated cells as a percentage of controls (avg): counted 48 h after addition
Excerpt: as §1, §2

[4] = test system: HSB-2 cells (Human T-cell leukemia, ALL); assay: as above; type: cell-based; conditions: for cell number in FTS-treated cells as a percentage of controls (avg): HSB, counted 48 h after addition
Excerpt: as §1, §2

[5] = test system: CEM cells (Human T-cell leukemia, ALL); assay: as above; type: cell-based; conditions: for cell number in FTS-treated cells as a percentage of controls (avg): CEM, counted 48 h after addition
Excerpt: as §1, §2

[6] = test system: 697 cells (Human T-cell leukemia, ALL); assay: as above; type: cell-based; conditions: for cell number in FTS-treated cells as a percentage of controls (avg): counted 48 h after addition
Excerpt: as §1, §2

[7] = test system: Raji cells (Human Burkitt's lymphoma); assay: as above; type: cell-based; conditions: for cell number in FTS-treated cells as a percentage of controls (avg): counted 48 h after addition
Excerpt: as §1, §2

[8] = test system: U-937 cells (Human histiocytic lymphoma, AML); assay: as above; type: cell-based; conditions: U937; for cell number in FTS-treated cells as a percentage of controls (avg): counted 48 h after addition
Excerpt: as §1, §2

K562 cells (Human, CML) [9] = assay: as above; type: cell-based; conditions: for cell number in FTS-treated cells as a percentage of controls (avg): counted 48 h after addition
Excerpt: as §1, §2

[10] = person one, AML, FTS 400 mg b.i.d.
[11] = person two, AML, FTS 400 mg b.i.d.
[12] = person, MDS, FTS 200 b.i.d., days 1 to 21 of a 28 day cycle
[13] = Homo sapiens, read-out: IC50 for FTS inhibition of leukemia cell growth

CC(C)=CCC/C(C)=C/CC/C(C)=C/CSc1ccccc1C(=O)O [FTS, farnesylthiosalicylic acid]
IC50 ([1]; Homo sapiens, seven leukemia cell lines, read-out: half maximal inhibitory concentration (IC50) values, range over the cell lines): 20 to 70 µM
growth inhibition, result in words ([1]; seven cell lines): inhibited growth of each of seven cell lines
lineage response (PLT, HGB or ANC) over the course of treatment ([2]; five patients, advanced MDS, AML or CML refractory to chemotherapy, 200 to 600 mg b.i.d., days 1 to 21 of a 28 day cycle): improvement in one lineage
lineage response (PLT, HGB, ANC) over the course of treatment ([2]; one patient, advanced MDS refractory to chemotherapy, 200 b.i.d. (400 mg daily), days 1 to 21 of a 28 day cycle): improvement in three lineages
ANC, best level observed [2, 10]: 4.503e+09 L⁻¹
ANC, baseline level [2, 10]: 0.285 to × 10^9/L
ANC, best level observed [2, 11]: 9.54e+08 L⁻¹
ANC, baseline level [2, 11]: 0.144 to × 10^9/L
HGB, best level observed ([2]; person, CML, FTS 600 mg b.i.d.): 11.4 g/dL
HGB, baseline level ([2]; person, CML, FTS 600 mg b.i.d.): 9.3 to g/dL
PLT, best level observed ([2]; person, MDS, FTS 200 mg b.i.d.): 5.4e+10 L⁻¹
PLT, baseline level ([2]; person, MDS, FTS 200 mg b.i.d.): 21 to × 10^9/L
HGB, best level observed ([2]; person, MDS, FTS 400 mg b.i.d.): 10.4 g/dL
HGB, baseline level ([2]; person, MDS, FTS 400 mg b.i.d.): 9.7 to g/dL
ANC, best level observed [2, 12]: 9.7e+08 L⁻¹
HGB, best level observed [2, 12]: 12.7 g/dL
PLT, best level observed [2, 12]: 1.05e+11 L⁻¹
ANC, baseline level [2, 12]: 0.40 to × 10^9/L
HGB, baseline level [2, 12]: 10.4 to g/dL
PLT, baseline level [2, 12]: 53 to × 10^9/L
sensitization of K562 cells to GLEEVEC (K562 cells (Human, CML) [3]; FTS 70 μM with GLEEVEC 200 nM): chemosensitized the K562 cells to GLEEVEC
cells in sub-G1 (K562 cells (Human, CML) [3]; FTS only, 70 μM): 8%
cell number in FTS-treated cells as a percentage of controls (avg) (HL-60 cells (AML); FTS 6.25 uM): 76%
cell number in FTS-treated cells as a percentage of controls (avg) (HL-60 cells (AML); FTS 12.5 uM): 69%
cell number in FTS-treated cells as a percentage of controls (avg) (HL-60 cells (AML); FTS 25 uM): 82%
cell number in FTS-treated cells as a percentage of controls (avg) (HL-60 cells (AML); FTS 50 uM): 67%
cell number in FTS-treated cells as a percentage of controls (avg) (HL-60 cells (AML); FTS 75 uM): 31%
IC50 (HL-60 cells (AML); [13]): 60 µM
cell number in FTS-treated cells as a percentage of controls (avg) ([4]; FTS 12.5 uM): 88%
cell number in FTS-treated cells as a percentage of controls (avg) ([4]; FTS 25 uM): 53%
cell number in FTS-treated cells as a percentage of controls (avg) ([4]; FTS 50 uM): 38%
cell number in FTS-treated cells as a percentage of controls (avg) ([4]; FTS 75 uM): 22%
cell number in FTS-treated cells as a percentage of controls (avg) ([4]; FTS 100 uM): 4%
IC50 ([4]; Homo sapiens, HSB2): 25 µM
cell number in FTS-treated cells as a percentage of controls (avg) ([5]; FTS 12.5 uM): 89%
cell number in FTS-treated cells as a percentage of controls (avg) ([5]; FTS 25 uM): 78%
cell number in FTS-treated cells as a percentage of controls (avg) ([5]; FTS 50 uM): 71%
cell number in FTS-treated cells as a percentage of controls (avg) ([5]; FTS 75 uM): 32%
cell number in FTS-treated cells as a percentage of controls (avg) ([5]; FTS 100 uM): 12%
IC50 ([5]; Homo sapiens, CCRF-CEM): 50 µM
cell number in FTS-treated cells as a percentage of controls (avg) ([6]; FTS 12.5 uM): 27%
cell number in FTS-treated cells as a percentage of controls (avg) ([6]; FTS 25 uM): 44%
cell number in FTS-treated cells as a percentage of controls (avg) ([6]; FTS 50 uM): 34%
cell number in FTS-treated cells as a percentage of controls (avg) ([6]; FTS 75 uM): 4%
cell number in FTS-treated cells as a percentage of controls (avg) ([6]; FTS 100 uM): 2%
IC50 ([6]; Homo sapiens, T-cell): 25 µM
cell number in FTS-treated cells as a percentage of controls (avg) ([7]; FTS 6.25 uM): 63%
cell number in FTS-treated cells as a percentage of controls (avg) ([7]; FTS 12.5 uM): 61%
cell number in FTS-treated cells as a percentage of controls (avg) ([7]; FTS 25 uM): 33%
cell number in FTS-treated cells as a percentage of controls (avg) ([7]; FTS 50 uM): 24%
cell number in FTS-treated cells as a percentage of controls (avg) ([7]; FTS 75 uM): 11%
cell number in FTS-treated cells as a percentage of controls (avg) ([7]; FTS 100 uM): 5%
IC50 [7, 13]: 20 µM
IC50 ([8]; Homo sapiens, U-937, read-out: IC50 for FTS inhibition of leukemia cell growth): 70 µM
cell number in FTS-treated cells as a percentage of controls (avg) ([8]; FTS 12.5 uM): 104%
cell number in FTS-treated cells as a percentage of controls (avg) ([8]; FTS 25 uM): 82%
cell number in FTS-treated cells as a percentage of controls (avg) ([8]; FTS 50 uM): 82%
cell number in FTS-treated cells as a percentage of controls (avg) ([8]; FTS 75 uM): 32%
cell number in FTS-treated cells as a percentage of controls (avg) ([8]; FTS 100 uM): 9%
cell number in FTS-treated cells as a percentage of controls (avg) (K562 cells (Human, CML) [9]; FTS 6.25 uM): 100%
cell number in FTS-treated cells as a percentage of controls (avg) (K562 cells (Human, CML) [9]; FTS 12.5 uM): 115%
cell number in FTS-treated cells as a percentage of controls (avg) (K562 cells (Human, CML) [9]; FTS 25 uM): 107%
cell number in FTS-treated cells as a percentage of controls (avg) (K562 cells (Human, CML) [9]; FTS 50 uM): 37%
cell number in FTS-treated cells as a percentage of controls (avg) (K562 cells (Human, CML) [9]; FTS 75 uM): 14%
cell number in FTS-treated cells as a percentage of controls (avg) (K562 cells (Human, CML) [9]; FTS 100 uM): 1%
IC50 (K562 cells (Human, CML) [9]; [13]): 50 µM

Cc1ccc(NC(=O)c2ccc(CN3CCN(C)CC3)cc2)cc1Nc1nccc(-c2cccnc2)n1 [GLEEVEC, reference compound]
cells in sub-G1 (K562 cells (Human, CML) [3]; GLEEVEC only, 200 nM): 13%
